Like-named read-outs stand apart in the source and are kept apart here.
Columns and labels:
[1] = system: adult emergency department (ED) patients with acute musculoskeletal pain; assay: Reduction of acute musculoskeletal pain (NRS) in adult ED patients, trial of Example 1/5; details: NRS 0-10, 60 minutes post medication; doses of Table 1 (dual route ketamine 0.5 mg/kg + aspirin 325 mg; IV ketamine 0.3 mg/kg; IV morphine 0.1 mg/kg; MSIR 15 mg; Percocet 10 mg); comparators from similar trials, same center and protocol; FIG. 1
[2] = cited from earlier work
[3] = cited from earlier work; remark: listed apart in the source

SMILES: CN1CC[C@]23c4c5ccc(O)c4O[C@H]2[C@@H](O)C=C[C@H]3[C@H]1C5 [IV morphine, Morphine]
- Reduction of acute musculoskeletal pain [1]: 5.1 points

SMILES: CNC1(c2ccccc2Cl)CCCCC1=O (stereo not drawn) [intranasal (nebulized) ketamine, ketamine]
- Reduction of acute musculoskeletal pain [1]: about 4 points

SMILES: CNC1(c2ccccc2Cl)CCCCC1=O (stereo not drawn) [ketamine]
- Bioavailability ([2]; IV): about 100%
- Elimination half-life ([2]; in vivo): 2 to 3 h
- Bioavailability ([2]; intramuscular injection): about 93%
- Delay of serum peak concentration, GI absorption versus direct (oral mucosal) absorption ([2]; ketamine given concurrently through the GI, patent's own reasoning, no PK data shown): 15 to 20 min
- Bioavailability ([2]; oral route): 18-20%
- Time at which maximal concentrations are reached ([2]; orally): 30 min

SMILES: NC1(c2ccccc2Cl)CCCCC1=O (stereo not drawn) [norketamine]
- Plasma levels of the metabolite relative to ketamine ([2]; following oral administration of ketamine): three times higher

SMILES: CC(C)Cc1ccc(C(C)C(=O)O)cc1 (stereo not drawn) [oral ibuprofen, Ibuprofen]
- Reduction of acute musculoskeletal pain [1]: 2 points

SMILES: CN1CC[C@]23c4c5ccc(O)c4O[C@H]2[C@@H](O)C=C[C@H]3[C@H]1C5.O=S(=O)(O)O [oral morphine, Morphine Sulfate]
- Reduction of acute musculoskeletal pain [1]: about 4 points

SMILES: N[C@@H]1c2cccnc2[C@H](OC(=O)N2CCC(n3c(=O)[nH]c4ncccc43)CC2)CC[C@H]1c1cccc(F)c1F [rimegepant, Rimegepant]
- Absolute oral bioavailability ([3]; in vivo, po): approximately 64%
- Eliminated in unchanged form ([3]; in vivo): ~77 % of the dose
- Major metabolites (i.e., >10%) detected in plasma ([3]; in vivo): no major metabolites
- Time of maximum concentration ([3]; oral administration of NURTEC Orally Disintegrating Tablet): 1.5 h

— US11382873B1, “Oral administration of ketamine” (Vitalis Analgesics LLC, priority 2021, dated 2022)
